| melting point | Structure (SMILES) |
| --- | --- |
| 187 to 189 °C | CCCCNC(=O)c1cn2nc(N3CCN(C(=O)c4ccccc4C(F)(F)F)CC3)ccc2n1 [Example 1.6, 6-[4-(2-TRIFLUOROMETHYLBENZOYL)PIPERAZIN-1-YL]IMIDAZO[1,2-B]PYRIDAZINE-2-CARBOXYLIC ACID BUTYLAMIDE] |
| 179 to 180 °C | CCCCCNC(=O)c1cn2nc(N3CCN(C(=O)c4ccccc4C(F)(F)F)CC3)ccc2n1 |

The remaining lines, values behind:

| Structure (SMILES) | melting point |
| --- | --- |
| O=C(Nc1ccc(Cl)cn1)c1cn2nc(N3CCN(C(=O)c4ccccc4C(F)(F)F)CC3)ccc2n1 [Example 1.7, 6-[4-(2-TRIFLUOROMETHYLBENZOYL)PIPERAZIN-1-YL]IMIDAZO[1,2-B]PYRIDAZINE-2-CARBOXYLIC ACID (5-CHLOROPYRIDIN-2-YL)AMIDE] | 265 to 268 °C |
| O=C(NCc1ccc(F)cc1)c1cn2nc(N3CCN(C(=O)c4ccccc4C(F)(F)F)CC3)ccc2n1 [Example 1.8, 6-[4-(2-TRIFLUOROMETHYLBENZOYL)PIPERAZIN-1-YL]IMIDAZO[1,2-B]PYRIDAZINE-2-CARBOXYLIC ACID 4-FLUOROBENZYLAMIDE] | 205 to 207 °C |
| O=C(Nc1ccc(F)cc1)c1cn2nc(N3CCN(C(=O)c4ccccc4C(F)(F)F)CC3)ccc2n1 [Example 1.9, 6-[4-(2-TRIFLUOROMETHYLBENZOYL)PIPERAZIN-1-YL]-IMIDAZO[1,2-B]PYRIDAZINE-2-CARBOXYLIC ACID (4-FLUOROPHENYL)AMIDE] | 115 to 117 °C |
